Several values for one entry are separate records, joined by “and”; a condition that tells them apart may be missing. Identical values can stand only once.
System: human primary preadipocytes
Assay: Suppression of adipogenesis in cultures of human primary preadipocytes (EC50)
Assay type: cell-based

Question: With COc1ccc2cc3[n+](cc2c1OC)CCc1cc2c(cc1-3)OCO2 [Phytonutrient C1, Berberine] as the compound, how does the EC50 read?
Answer: Its EC50 is 10 µM and 3.5 µg/mL.

Question: With O=c1cc(-c2ccc(O)c(O)c2)oc2cc(O)cc(O)c12 [Phytonutrient C2, Luteolin] as the compound, how does the EC50 read?
Answer: The EC50 was 20 µM and 5.7 µg/mL.

Question: How did the EC50 turn out when Oc1ccc(/C=C/c2cc(O)cc(O)c2)cc1 [Phytonutrient C3, Resveratrol] was run?
Answer: The EC50 was 40 µM and 9.1 µg/mL.

Question: For O=c1c(O)c(-c2ccc(O)c(O)c2)oc2cc(O)ccc12 [Phytonutrient C4, Fisetin], which EC50 is on record?
Answer: The EC50 was 50 µM and 14.3 µg/mL.

Question: Which EC50 does the source give for O=c1c(O)c(-c2ccc(O)c(O)c2)oc2cc(O)cc(O)c12 [Phytonutrient C5, Quercetin] here?
Answer: Its EC50 is 25 µM and 7.6 µg/mL.

Question: With O=C(OC1Cc2c(O)cc(O)cc2OC1c1cc(O)c(O)c(O)c1)c1cc(O)c(O)c(O)c1 (stereo not shown) [Phytonutrient C7, Epigallocatechin Gallate (EGCG)] as the compound, how does the EC50 read?
Answer: Its EC50 is 20 µM and 9.2 µg/mL.

Question: For COc1cc(/C=C/C(=O)/C=C(O)/C=C/c2ccc(O)c(OC)c2)ccc1O [Phytonutrient C9, Curcumin], which EC50 is on record?
Answer: The EC50 was 20 µM and 7.5 µg/mL.

Source: patent publication US20220378814A1, “COMPOSITION OF PHYTONUTRIENTS FOR OBESITY PREVENTION” (ROSEMAN UNIVERSITY OF HEALTH SCIENCES, priority 2021, published 2022)
